Test results published in ChEMBL document CHEMBL5465560, “Selectivity Literature for EUbOPEN Chemogenomic Library” (2024).
Each block holds one compound with its values, some of them ahead of it.

Legend:
[1] = molecular target: Casein kinase I isoform epsilon (Homo sapiens, UniProt P49674); test: Selectivity interaction (Kinase panel (Z-LYTE Assay)) EUB0001632a CSNK1E; conditions: at 10 µM
[2] = test system: Leucine-rich repeat serine/threonine-protein kinase 2 (Homo sapiens), Q5S007 [I2020T]; test: (§1) Selectivity interaction (Adapta Assay) EUB0001632a LRRK2; conditions: at 10 µM
[3] = test system: Leucine-rich repeat serine/threonine-protein kinase 2 (Homo sapiens), Q5S007 [R1441C]; test: as §1; conditions: at 10 µM
[4] = molecular target: Leucine-rich repeat serine/threonine-protein kinase 2 (Homo sapiens, UniProt Q5S007); test: as §1; conditions: at 10 µM
[5] = test system: Leucine-rich repeat serine/threonine-protein kinase 2 (Homo sapiens), Q5S007 [G2019S]; test: as §1; conditions: at 10 µM
Chain of Leucine-rich repeat serine/threonine-protein kinase 2 (Homo sapiens), Q5S007 [G2019S] (Q5S007 whole entry G2019S): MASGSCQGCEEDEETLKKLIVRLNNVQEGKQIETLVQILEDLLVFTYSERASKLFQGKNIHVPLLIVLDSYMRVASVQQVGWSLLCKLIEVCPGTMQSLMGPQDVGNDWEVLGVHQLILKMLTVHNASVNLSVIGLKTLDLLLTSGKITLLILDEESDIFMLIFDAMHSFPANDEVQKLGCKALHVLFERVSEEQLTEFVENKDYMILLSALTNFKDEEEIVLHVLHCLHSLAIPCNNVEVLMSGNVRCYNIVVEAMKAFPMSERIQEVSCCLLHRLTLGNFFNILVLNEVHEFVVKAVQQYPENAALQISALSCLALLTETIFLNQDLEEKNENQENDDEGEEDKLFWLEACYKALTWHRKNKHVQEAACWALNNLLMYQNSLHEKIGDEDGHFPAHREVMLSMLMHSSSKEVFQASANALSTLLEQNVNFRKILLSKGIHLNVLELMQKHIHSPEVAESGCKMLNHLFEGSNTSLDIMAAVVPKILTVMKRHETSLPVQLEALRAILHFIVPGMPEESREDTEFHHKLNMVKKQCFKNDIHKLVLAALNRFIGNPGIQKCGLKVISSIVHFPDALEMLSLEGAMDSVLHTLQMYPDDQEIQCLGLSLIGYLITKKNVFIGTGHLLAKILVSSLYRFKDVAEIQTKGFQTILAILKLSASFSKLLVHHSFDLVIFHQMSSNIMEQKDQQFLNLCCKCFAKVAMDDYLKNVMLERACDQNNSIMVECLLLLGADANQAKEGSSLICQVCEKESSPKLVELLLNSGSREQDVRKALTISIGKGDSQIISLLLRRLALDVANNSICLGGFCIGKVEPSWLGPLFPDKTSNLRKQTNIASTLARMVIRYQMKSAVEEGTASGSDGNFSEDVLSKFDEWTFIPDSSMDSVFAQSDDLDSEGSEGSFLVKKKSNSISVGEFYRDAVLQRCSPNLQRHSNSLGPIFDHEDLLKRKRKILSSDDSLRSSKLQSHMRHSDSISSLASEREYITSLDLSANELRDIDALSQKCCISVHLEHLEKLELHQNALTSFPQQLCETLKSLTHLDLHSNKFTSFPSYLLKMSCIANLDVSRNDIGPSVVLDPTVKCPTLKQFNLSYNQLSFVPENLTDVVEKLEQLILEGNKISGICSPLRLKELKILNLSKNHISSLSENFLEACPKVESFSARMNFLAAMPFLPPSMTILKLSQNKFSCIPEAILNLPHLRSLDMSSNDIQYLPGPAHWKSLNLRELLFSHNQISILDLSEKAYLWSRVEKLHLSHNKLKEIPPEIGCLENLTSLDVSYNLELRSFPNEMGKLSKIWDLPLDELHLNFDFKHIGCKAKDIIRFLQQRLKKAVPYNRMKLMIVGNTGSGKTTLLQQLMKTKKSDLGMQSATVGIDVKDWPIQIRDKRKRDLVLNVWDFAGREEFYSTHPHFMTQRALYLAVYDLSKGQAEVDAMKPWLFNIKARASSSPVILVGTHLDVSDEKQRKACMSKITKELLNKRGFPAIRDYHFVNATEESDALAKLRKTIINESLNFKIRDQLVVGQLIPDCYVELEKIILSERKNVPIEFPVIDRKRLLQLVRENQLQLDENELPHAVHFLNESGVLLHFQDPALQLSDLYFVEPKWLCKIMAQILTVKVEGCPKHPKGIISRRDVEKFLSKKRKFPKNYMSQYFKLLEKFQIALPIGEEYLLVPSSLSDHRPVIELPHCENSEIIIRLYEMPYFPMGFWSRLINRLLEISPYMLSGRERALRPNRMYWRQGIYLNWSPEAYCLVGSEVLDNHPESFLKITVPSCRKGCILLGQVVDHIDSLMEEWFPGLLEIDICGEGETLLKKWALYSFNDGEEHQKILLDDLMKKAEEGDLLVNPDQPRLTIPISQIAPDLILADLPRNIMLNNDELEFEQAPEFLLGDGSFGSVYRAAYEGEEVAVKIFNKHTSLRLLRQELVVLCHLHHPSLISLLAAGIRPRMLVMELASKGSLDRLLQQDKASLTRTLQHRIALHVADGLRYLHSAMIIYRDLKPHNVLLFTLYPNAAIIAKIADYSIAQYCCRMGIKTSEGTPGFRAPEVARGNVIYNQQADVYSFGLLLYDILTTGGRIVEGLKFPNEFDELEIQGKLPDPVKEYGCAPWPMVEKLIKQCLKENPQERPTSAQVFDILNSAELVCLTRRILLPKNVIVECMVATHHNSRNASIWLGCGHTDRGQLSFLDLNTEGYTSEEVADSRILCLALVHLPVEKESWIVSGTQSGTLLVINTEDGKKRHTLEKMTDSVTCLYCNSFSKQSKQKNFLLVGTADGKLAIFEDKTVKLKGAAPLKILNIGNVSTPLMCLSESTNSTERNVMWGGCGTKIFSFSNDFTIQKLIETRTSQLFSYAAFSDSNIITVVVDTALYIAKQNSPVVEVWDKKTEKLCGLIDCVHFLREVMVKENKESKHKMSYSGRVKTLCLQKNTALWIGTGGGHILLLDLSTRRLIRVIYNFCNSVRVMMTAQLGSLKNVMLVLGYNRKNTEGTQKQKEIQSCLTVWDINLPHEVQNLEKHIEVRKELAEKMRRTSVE

[6] = molecular target: Proto-oncogene tyrosine-protein kinase Src (Homo sapiens, UniProt P12931); test: Selectivity interaction (ActivX KiNativ screen (kinase selectivity in THP-1 cell lysates)) EUB0000639a SRC; format: subcellular; conditions: lysate
Chain of Proto-oncogene tyrosine-protein kinase Src (P12931 2-536 limits assumed): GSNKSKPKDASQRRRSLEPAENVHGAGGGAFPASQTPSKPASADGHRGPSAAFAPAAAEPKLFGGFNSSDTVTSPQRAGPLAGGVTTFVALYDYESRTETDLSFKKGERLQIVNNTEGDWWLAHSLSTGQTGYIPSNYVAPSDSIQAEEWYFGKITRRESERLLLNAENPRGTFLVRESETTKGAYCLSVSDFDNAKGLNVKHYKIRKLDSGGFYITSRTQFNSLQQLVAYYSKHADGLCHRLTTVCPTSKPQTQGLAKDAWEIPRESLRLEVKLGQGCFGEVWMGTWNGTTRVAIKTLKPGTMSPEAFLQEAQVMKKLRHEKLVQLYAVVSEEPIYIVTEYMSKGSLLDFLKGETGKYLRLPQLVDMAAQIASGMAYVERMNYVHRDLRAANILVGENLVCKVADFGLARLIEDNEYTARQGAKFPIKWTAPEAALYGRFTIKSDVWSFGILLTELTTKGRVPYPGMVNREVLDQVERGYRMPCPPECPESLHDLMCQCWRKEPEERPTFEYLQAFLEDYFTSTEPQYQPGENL

[7] = molecular target: CDK12/Cyclin K (Homo sapiens) (UniProt O75909+Q9NYV4); test: (§2) Selectivity interaction (ProQinase) EUB0000171b CDK12; format: protein-complex assay
Chain of CDK12/Cyclin K (Homo sapiens) (O75909 whole entry, looked up): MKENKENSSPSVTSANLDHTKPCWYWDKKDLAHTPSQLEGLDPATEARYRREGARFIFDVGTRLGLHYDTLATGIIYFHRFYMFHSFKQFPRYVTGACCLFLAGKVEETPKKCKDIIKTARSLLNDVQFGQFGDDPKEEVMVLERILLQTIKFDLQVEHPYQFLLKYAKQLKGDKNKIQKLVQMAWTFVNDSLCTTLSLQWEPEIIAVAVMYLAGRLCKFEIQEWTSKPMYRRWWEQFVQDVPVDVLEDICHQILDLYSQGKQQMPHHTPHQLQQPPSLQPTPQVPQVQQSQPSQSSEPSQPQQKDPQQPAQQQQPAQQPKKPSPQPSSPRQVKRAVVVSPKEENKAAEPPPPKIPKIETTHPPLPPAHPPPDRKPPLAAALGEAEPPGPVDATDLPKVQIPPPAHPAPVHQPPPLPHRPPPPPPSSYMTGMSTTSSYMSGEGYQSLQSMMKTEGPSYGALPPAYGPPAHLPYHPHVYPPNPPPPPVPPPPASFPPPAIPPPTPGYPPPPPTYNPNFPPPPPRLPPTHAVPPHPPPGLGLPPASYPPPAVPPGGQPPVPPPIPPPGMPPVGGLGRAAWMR
Chain of CDK12/Cyclin K (Homo sapiens) (Q9NYV4 whole entry, looked up): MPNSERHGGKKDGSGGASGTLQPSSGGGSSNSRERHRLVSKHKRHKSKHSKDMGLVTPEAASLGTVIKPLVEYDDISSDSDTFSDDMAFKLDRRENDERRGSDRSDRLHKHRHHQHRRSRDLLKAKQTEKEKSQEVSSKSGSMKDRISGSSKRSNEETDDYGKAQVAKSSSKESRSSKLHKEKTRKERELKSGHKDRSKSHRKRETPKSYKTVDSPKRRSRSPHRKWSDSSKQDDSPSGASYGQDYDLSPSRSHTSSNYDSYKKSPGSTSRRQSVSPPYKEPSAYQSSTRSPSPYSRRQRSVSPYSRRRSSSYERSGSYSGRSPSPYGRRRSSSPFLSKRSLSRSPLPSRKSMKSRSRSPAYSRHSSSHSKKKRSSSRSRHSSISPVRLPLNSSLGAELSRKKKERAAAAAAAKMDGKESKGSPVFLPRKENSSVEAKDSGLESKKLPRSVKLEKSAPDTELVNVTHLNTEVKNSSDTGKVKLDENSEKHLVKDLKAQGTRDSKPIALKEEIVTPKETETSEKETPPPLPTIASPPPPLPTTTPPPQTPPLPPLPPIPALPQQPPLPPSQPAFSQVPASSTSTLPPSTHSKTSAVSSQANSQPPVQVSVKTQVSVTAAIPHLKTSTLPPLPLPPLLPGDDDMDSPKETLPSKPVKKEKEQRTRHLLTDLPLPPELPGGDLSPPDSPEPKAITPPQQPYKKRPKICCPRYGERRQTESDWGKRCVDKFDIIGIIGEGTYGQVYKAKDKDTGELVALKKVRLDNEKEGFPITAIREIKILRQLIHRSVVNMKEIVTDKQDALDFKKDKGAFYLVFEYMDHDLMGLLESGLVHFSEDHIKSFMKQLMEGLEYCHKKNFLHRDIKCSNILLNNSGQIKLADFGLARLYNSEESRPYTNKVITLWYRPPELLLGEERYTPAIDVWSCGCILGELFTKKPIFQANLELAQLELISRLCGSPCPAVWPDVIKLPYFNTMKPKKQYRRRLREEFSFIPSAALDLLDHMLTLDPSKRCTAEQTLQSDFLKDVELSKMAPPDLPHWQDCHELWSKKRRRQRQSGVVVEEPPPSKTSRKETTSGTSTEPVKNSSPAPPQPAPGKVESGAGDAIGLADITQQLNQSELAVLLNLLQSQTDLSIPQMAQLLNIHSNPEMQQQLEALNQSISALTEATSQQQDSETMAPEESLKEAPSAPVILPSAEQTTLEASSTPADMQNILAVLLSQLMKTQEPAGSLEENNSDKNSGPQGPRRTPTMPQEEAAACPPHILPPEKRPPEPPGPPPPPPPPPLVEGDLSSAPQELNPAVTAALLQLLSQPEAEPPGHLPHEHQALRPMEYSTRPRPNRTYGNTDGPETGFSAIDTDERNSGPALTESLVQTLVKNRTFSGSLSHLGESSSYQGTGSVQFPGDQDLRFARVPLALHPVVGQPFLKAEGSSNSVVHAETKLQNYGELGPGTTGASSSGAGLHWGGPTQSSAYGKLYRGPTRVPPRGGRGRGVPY

[8] = test system: CDK12/Cyclin K (Homo sapiens), O75909+Q9NYV4 [R722C]; test: as §2; format: protein-complex assay; conditions: at 5 µM
[9] = molecular target: T1, Calcium/calmodulin-dependent protein kinase type IV (Homo sapiens) (UniProt Q16566); test: Selectivity interaction (ProQinase) EUB0000171b CAMK4
T1 sequence (whole entry): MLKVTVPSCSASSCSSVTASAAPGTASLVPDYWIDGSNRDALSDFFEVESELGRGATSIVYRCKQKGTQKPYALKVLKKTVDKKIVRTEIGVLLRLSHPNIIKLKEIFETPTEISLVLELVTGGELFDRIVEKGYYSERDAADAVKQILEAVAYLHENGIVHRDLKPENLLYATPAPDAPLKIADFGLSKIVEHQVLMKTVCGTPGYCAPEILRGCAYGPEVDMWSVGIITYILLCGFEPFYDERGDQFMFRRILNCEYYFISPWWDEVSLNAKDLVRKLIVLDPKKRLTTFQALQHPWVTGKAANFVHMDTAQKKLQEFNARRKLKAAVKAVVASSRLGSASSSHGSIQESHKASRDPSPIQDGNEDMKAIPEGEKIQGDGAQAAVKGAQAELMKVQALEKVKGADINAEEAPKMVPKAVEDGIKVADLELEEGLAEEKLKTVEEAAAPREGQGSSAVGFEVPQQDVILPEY

[10] = molecular target: BDNF/NT-3 growth factors receptor (Homo sapiens) (UniProt Q16620); test: Selectivity interaction (KinomeScan (DiscoverX)) EUB0000695a NTRK2; conditions: at 100 nM
[11] = molecular target: LIM domain kinase 1 (Homo sapiens) (UniProt P53667); test: Selectivity interaction (KinomeScan (DiscoverX)) EUB0000595a LIMK1; conditions: at 10 µM
[12] = molecular target: Cyclin-dependent kinase 3 (Homo sapiens) (UniProt Q00526); test: Selectivity interaction (KinomeScan (DiscoverX)) EUB0001049a CDK3; conditions: at 1 µM
[13] = molecular target: Tyrosine-protein kinase Srms (Homo sapiens) (UniProt Q9H3Y6); test: Selectivity interaction (Ambit KINOMEscan and KiNATiv profiling in Jurkat cells) EUB0000090b SRMS; format: cell-based; conditions: at 1 µM
[14] = molecular target: T2, Protein kinase C iota type (Homo sapiens) (UniProt P41743); test: Selectivity interaction (Kinase panel (KiNativ target engagement assay in Jurkat cells)) EUB0001635a PRKCI; format: cell-based; conditions: Selectivity number of off-targets 0.0, Selectivity number of targets 233.0, Source Knowledge https://www.sciencedirect.com/science/article/pii/S2451945619300674?via%3Dihub, at 1 µM
T2 sequence (whole entry): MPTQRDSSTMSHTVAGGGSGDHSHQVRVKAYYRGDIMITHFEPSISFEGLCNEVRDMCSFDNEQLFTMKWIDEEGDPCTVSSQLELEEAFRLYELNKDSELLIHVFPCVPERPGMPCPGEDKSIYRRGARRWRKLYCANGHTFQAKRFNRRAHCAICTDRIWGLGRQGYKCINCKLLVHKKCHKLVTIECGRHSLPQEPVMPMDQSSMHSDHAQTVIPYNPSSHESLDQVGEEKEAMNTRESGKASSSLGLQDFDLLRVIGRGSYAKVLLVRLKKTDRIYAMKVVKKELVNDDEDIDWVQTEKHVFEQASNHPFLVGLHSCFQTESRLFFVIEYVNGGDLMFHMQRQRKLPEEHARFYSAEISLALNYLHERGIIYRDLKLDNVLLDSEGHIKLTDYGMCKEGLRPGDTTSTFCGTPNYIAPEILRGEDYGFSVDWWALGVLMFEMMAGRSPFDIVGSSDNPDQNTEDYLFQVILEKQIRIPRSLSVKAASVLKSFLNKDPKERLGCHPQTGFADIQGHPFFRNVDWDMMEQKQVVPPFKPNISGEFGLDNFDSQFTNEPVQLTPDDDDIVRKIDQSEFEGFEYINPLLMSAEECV

[15] = molecular target: Phosphatidylinositol 4-phosphate 5-kinase type-1 alpha (Homo sapiens) (UniProt Q99755); test: Selectivity interaction (KinomeScan (DiscoverX)) EUB0000229b PIP5K1A; conditions: at 10 µM
[16] = molecular target: Dual specificity mitogen-activated protein kinase kinase 1 (Homo sapiens, UniProt Q02750); conditions: at 10 µM
[17] = molecular target: T3, Uncharacterized serine/threonine-protein kinase SBK3 (Homo sapiens) (UniProt P0C264); test: Selectivity interaction (KinomeScan (DiscoverX)) EUB0000618a SBK3; conditions: at 10 µM
T3 sequence (whole entry): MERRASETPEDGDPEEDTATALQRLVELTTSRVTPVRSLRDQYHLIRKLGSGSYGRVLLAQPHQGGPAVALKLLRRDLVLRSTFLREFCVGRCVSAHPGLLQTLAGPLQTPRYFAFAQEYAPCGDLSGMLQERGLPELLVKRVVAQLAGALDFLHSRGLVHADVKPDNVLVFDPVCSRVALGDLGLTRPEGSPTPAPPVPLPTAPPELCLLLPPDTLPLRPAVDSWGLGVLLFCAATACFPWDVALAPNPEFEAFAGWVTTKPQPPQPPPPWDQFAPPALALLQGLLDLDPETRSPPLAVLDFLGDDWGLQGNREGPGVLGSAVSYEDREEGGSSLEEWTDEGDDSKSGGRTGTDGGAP

% of control [1]: 48.9% | % of inhibition [2]: 100% | % of inhibition [3]: 96.1% | % of inhibition [4]: 18.9% | % of inhibition [5]: 23.9%
Structure (SMILES): Cn1cc(-n2cnc3c(NCc4nc5cc(Cl)c(Cl)cc5[nH]4)nc(N4CCOCC4)nc32)cn1

% of inhibition ([6]; at 0.01 µM): -8.5% | % of inhibition ([6]; at 0.04 µM): -0.2% | % of inhibition ([6]; at 0.2 µM): 0.7% | % of inhibition ([6]; at 1 µM): -11% | % of inhibition ([6]; at 5 µM): -13.3%
Structure (SMILES): CC[C@@H]1[C@H](F)C(=O)N[C@@H]1COc1nccc2cc(C(N)=O)c(OC)cc12 [ZIMLOVISERTIB]

% of control ([7]; at 1 µM): 93% | % of control ([7]; at 5 µM): 57% | % of control [8]: 66% | % of control ([9]; at 1 µM): 110% | % of control ([9]; at 5 µM): 91%
Structure (SMILES): C=CC(=O)Nc1cccc(C(=O)Nc2ccc(Nc3cc(-c4[nH]c(SC)nc4C)ccn3)cc2)c1

Structure (SMILES): Cc1cc(F)c(C(=O)Nc2cccc(-c3nncn3C(C)C)n2)cc1-n1cnc(C2CC2)c1
% of control [10]: 65%

Structure (SMILES): COCC(=O)NC/C=C/c1ccc2ncnc(Nc3ccc(Oc4ccc(C)nc4)c(C)c3)c2c1 [CP-724714]
% of control [11]: 93%

Structure (SMILES): COc1cc(Nc2nc(C)cc(-c3cnn4nc(OC)ccc34)n2)cc(C(F)(F)F)c1
% of control [12]: 90%

Structure (SMILES): CN(C)C/C=C/C(=O)Nc1ccc(C(=O)N2CCCC(Nc3ncc(Cl)c(-c4c[nH]c5ccccc45)n3)C2)cc1 (stereo not drawn)
% of control [13]: 99%

Structure (SMILES): C=CC(=O)Nc1ccc(C(=O)Nc2[nH]nc3c2CN(C(=O)N[C@H](CN(C)C)c2ccccc2)C3(C)C)cc1
% of engagement [14]: 9.5%

Structure (SMILES): COc1cc(N(C)c2ccnc3ccc(C(F)(F)F)cc23)cc(OC)c1OC
% binding [15]: 76%

Structure (SMILES): Cc1cc([C@@H](C)Nc2ccccc2C(=O)O)c2nc(N3CCOCC3)cc(=O)n2c1 [AZD-6482]
% of control [16]: 89%

Structure (SMILES): O[C@H]1CC[C@H](Nc2ncc3nc(Nc4c(F)cc(F)cc4F)n([C@H]4CCOC4)c3n2)CC1
% of control [17]: 100%
